From patent US11918582B2 (RAPT Therapeutics, Inc., priority 2021, dated 2024)
Counter-ions that a name gives are not always drawn.

Molecular target: T1, human HPK1 (MAP4K1) (Homo sapiens, UniProt Q92918)
T1 construct: Recombinant human HPK1 kinase domain was obtained from ThermoFisher (Cat. #PV6357) and SignalChem (Cat. #M23-11G); purchased ThermoFisher; SignalChem PV6357; M23-11G
T1 sequence (Q92918 17-274 limits assumed): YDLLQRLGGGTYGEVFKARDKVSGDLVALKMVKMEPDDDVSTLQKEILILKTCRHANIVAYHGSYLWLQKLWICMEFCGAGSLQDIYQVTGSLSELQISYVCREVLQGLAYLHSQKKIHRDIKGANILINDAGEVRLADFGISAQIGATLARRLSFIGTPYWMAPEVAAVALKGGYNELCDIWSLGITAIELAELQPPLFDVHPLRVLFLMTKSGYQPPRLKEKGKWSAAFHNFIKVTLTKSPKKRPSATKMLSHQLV
Assay: Biochemical assay for activity against HPK1 (ADP-Glo, MBP substrate)
Details: recombinant human HPK1 kinase domain, 1 nM enzyme, ADP-Glo luminescence
Outline: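 Recombinant human HPK1 kinase domain (1 nM solution) preincubated 15 min at room temperature with compounds in pH 7.5 HEPES buffer with NaCl, TCEP, MgCl2, Tween-20, BSA. MBP substrate with ATP added, reaction run 2 h at room temperature. ADP formation read by ADP-Glo luminescence to give IC50.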

Row | Compound | IC50
1 | COc1cc2c(cc1Nc1ncc3cnn([C@H]4CC[C@@H](CO)CC4)c3n1)CN(C)CC2 [Example 67, cis-[4-[6-[(6-methoxy-2-methyl-3,4-dihydro-1H-isoquinolin-7-yl)amino]pyrazolo[3,4-d]pyrimidin-1-yl]cyclohexyl]methanol] | < 100 nM
2 | CN1CCc2c(cc(Nc3ncc4cnn([C@H]5CC[C@H](O)CC5)c4n3)cc2C(F)(F)F)C1 [Example 58, (1r,4r)-4-(6-((2-methyl-5-(trifluoromethyl)-1,2,3,4-tetrahydroisoquinolin-7-yl)amino)-1H-pyrazolo[3,4-d]pyrimidin-1-yl)cyclohexan-1-ol] | < 100 nM
3 | COc1nc2c(cc1Nc1ncc3cnn(C[C@@H]4CCC(C)(C)N4C(C)=O)c3n1)CN(C)CC2 [Example 177, 1-[(5S)-5-[[6-[(2-methoxy-6-methyl-7,8-dihydro-5H-1,6-naphthyridin-3-yl)amino]pyrazolo[3,4-d]pyrimidin-1-yl]methyl]-2,2-dimethyl-pyrrolidin-1-yl]ethenone] | < 100 nM
4 | COc1cc2c(cc1Nc1ncc3cnn(C[C@@H](C)NC(C)=O)c3n1)CN(C)CC2 [Example 97, N-[(1R)-2-[6-[(6-methoxy-2-methyl-3,4-dihydro-1H-isoquinolin-7-yl)amino]pyrazolo[3,4-d]pyrimidin-1-yl]-1-methyl-ethyl]acetamide] | 100 to 250 nM
5 | CNC(=O)[C@@H]1CCC[C@@H](n2ncc3cnc(Nc4cc5c(cc4OC)CCN(C)C5)nc32)C1 [Example 53, (1R,3R)-3-(6-((6-methoxy-2-methyl-1,2,3,4-tetrahydroisoquinolin-7-yl)amino)-1H-pyrazolo[3,4-d]pyrimidin-1-yl)-N-methylcyclohexane-1-carboxamide] | < 100 nM
6 | COc1nc2c(cc1Nc1ncc3cnn(C[C@@H]4CC[C@H](C)N4C(C)=O)c3n1)CN(C)CC2 [Example 172, 1-[(2S,5S)-2-[[6-[(2-methoxy-6-methyl-7,8-dihydro-5H-1,6-naphthyridin-3-yl)amino]pyrazolo[3,4-d]pyrimidin-1-yl]methyl]-5-methyl-pyrrolidin-1-yl]ethenone] | < 100 nM
7 | COc1cc2c(cc1Nc1ncc3c(C)nn([C@H]4CC[C@@H](O)C4)c3n1)CN(C)CC2 (relative stereo) [Example 149, (rel-1S,3R)-3-(6-((6-methoxy-2-methyl-1,2,3,4-tetrahydroisoquinolin-7-yl)amino)-3-methyl-1H-pyrazolo[3,4-d]pyrimidin-1-yl)cyclopentan-1-ol] | < 100 nM
8 | COc1cc2c(cc1Nc1ncc3cnn([C@H]4CC[C@@H](OC)CC4)c3n1)CN(C)CC2 [Example 46, 6-methoxy-N-(1-((1s,4s)-4-methoxycyclohexyl)-1H-pyrazolo[3,4-d]pyrimidin-6-yl)-2-methyl-1,2,3,4-tetrahydroisoquinolin-7-amine] | < 100 nM
9 | COc1cc2c(cc1Nc1ncc3cnn(CCC(C)(C)O)c3n1)CN(C)CC2 [Example 85, 4-[6-[(6-methoxy-2-methyl-3,4-dihydro-1H-isoquinolin-7-yl)amino]pyrazolo[3,4-d]pyrimidin-1-yl]-2-methyl-butan-2-ol] | < 100 nM
10 | COc1cc2c(cc1Nc1ncc3cnn(C[C@@H]4C[C@@H](O)CN4C(C)=O)c3n1)CN(C)CC2 [Example 130, 1-((2S,4R)-4-hydroxy-2-((6-((6-methoxy-2-methyl-1,2,3,4-tetrahydroisoquinolin-7-yl)amino)-1H-pyrazolo[3,4-d]pyrimidin-1-yl)methyl)pyrrolidin-1-yl)ethan-1-one trifluoroacetate] | < 100 nM
11 | COc1cc2c(cc1Nc1ncc3cnn(C[C@H]4CCCN(C(C)=O)C4)c3n1)CN(C)CC2 [Example 142, I-[(3S)-3-[[6-[(6-methoxy-2-methyl-3,4-dihydro-1H-isoquinolin-7-yl)amino]pyrazolo[3,4-d]pyrimidin-1-yl]methyl]-1-piperidyl]ethan-1-one] | < 100 nM
12 | COc1cc2c(cc1Nc1ncc3cnn(C[C@@H]4CCCN4C(C)=O)c3n1)C(C)(C)N(C)CC2 [Example 178, (S)-1-(2-((6-((6-methoxy-1,1,2-trimethyl-1,2,3,4-tetrahydroisoquinolin-7-yl)amino)-1H-pyrazolo[3,4-d]pyrimidin-1-yl)methyl)pyrrolidin-1-yl)ethan-1-one] | < 100 nM
13 | CNC(=O)[C@H]1CC[C@H](n2ncc3cnc(Nc4cc5c(cc4OC)CCN(C)C5)nc32)CC1 [Example 60, (1r,4r)-4-(6-((6-methoxy-2-methyl-1,2,3,4-tetrahydroisoquinolin-7-yl)amino)-1H-pyrazolo[3,4-d]pyrimidin-1-yl)-N-methylcyclohexane-1-carboxamide] | < 100 nM
14 | COc1cc2c(cc1Nc1ncc3cnn([C@H]4CC[C@H](C(N)=O)CC4)c3n1)CN(C)CC2 [Example 38, (1r,4r)-4-(6-((6-methoxy-2-methyl-1,2,3,4-tetrahydroisoquinolin-7-yl)amino)-1H-pyrazolo[3,4-d]pyrimidin-1-yl)cyclohexane-1-carboxamide] | < 100 nM
15 | CN1CCc2ccc(Nc3ncc4cnn(C56CC7CC(CC(C7)C5)C6)c4n3)cc2C1 [Example 103, N-(1-((3s,5s,7s)-adamantan-1-yl)-1H-pyrazolo[3,4-d]pyrimidin-6-yl)-2-methyl-1,2,3,4-tetrahydroisoquinolin-7-amine] | < 100 nM
16 | CNC(=O)[C@]1(C)C[C@@H](n2ncc3cnc(Nc4cc5c(cc4OC)CCN(C)C5)nc32)C1 [Example 73, trans-3-[6-[(6-methoxy-2-methyl-3,4-dihydro-1H-isoquinolin-7-yl)amino]pyrazolo[3,4-d]pyrimidin-1-yl]-N,1-methyl-cyclobutanecarboxamide] | < 100 nM
17 | COc1cc2c(cc1Nc1ncc3c(C)nn([C@H]4CC[C@H](O)CC4)c3n1)CN(C)CC2 [Example 50, trans-4-(6-((6-methoxy-2-methyl-1,2,3,4-tetrahydroisoquinolin-7-yl)amino)-3-methyl-1H-pyrazolo[3,4-d]pyrimidin-1-yl)cyclohexan-1-ol] | < 100 nM
18 | CN1CCc2ccc(Nc3ncc4cnn(C5CCCCC5)c4n3)cc2C1 [Example 102, N-(1-cyclohexyl-1H-pyrazolo[3,4-d]pyrimidin-6-yl)-2-methyl-1,2,3,4-tetrahydroisoquinolin-7-amine] | < 100 nM
19 | COc1cc2c(cc1Nc1ncc3cnn(CC4(C)CC4)c3n1)CN(C)CC2 [Example 203, 6-methoxy-2-methyl-N-(1-((1-methylcyclopropyl)methyl)-1H-pyrazolo[3,4-d]pyrimidin-6-yl)-1,2,3,4-tetrahydroisoquinolin-7-amine] | < 100 nM
20 | CCC1CCCCC1n1ncc2cnc(Nc3cc4c(cc3OC)CCN(C)C4)nc21 (stereo not shown) [Example 25, N-(1-(2-ethylcyclohexyl)-1H-pyrazolo[3,4-d]pyrimidin-6-yl)-6-methoxy-2-methyl-1,2,3,4-tetrahydroisoquinolin-7-amine] | < 100 nM
21 | COc1cc2c(cc1Nc1ncc3cnn(CC[C@@H](C)O)c3n1)CN(C)CC2 [Example 83, (2R)-4-[6-[(6-methoxy-2-methyl-3,4-dihydro-1H-isoquinolin-7-yl)amino]pyrazolo[3,4-d]pyrimidin-1-yl]butan-2-ol] | < 100 nM
22 | COc1cc2c(cc1Nc1ncc3cnn(C[C@H]4C[C@@H](NC(C)=O)C4)c3n1)CN(C)CC2 [Example 119, cis N-(3-((6-((6-methoxy-2-methyl-1,2,3,4-tetrahydroisoquinolin-7-yl)amino)-1H-pyrazolo[3,4-d]pyrimidin-1-yl)methyl)cyclobutyl)acetamide] | < 100 nM
